Patent publication US20180078602A1, “METHODS AND COMPOSITIONS FOR EXTENDING THE EFFICACY OF PHOSPHODIESTERASE INHIBITORS FOR TREATING ERECTILE DYSFUNCTION, AND COMPOSITIONS FOR INHIBITING THE ONSET AND SLOWING THE PROGRESSION OF ERECTILE DYSFUNCTION” (K.L.R.M., LLC, priority 2015, published 2018)

What was measured:
desmin = experiment: Desmin immunohistochemistry (smooth muscle cell content); type: in vivo, rat; conditions: treatment 2 months; with respect to 12 month-old non-treated controls
Description: (§1) Middle aged 10 month-old Fisher 344 rats (Harlan Sprague-Dawley, San Diego, Calif.) were divided in 4 groups and treated daily for two months as follows: • a) Control: 12 month-old at the time of death receiving by retrolingual administration vehicle only composed of 10% dimethyl sulfoxide, peanut butter and water (12 month); • b) Composition 4 (COMP 4): a combination of Muira Puama (45 mg/Kg B.W), Paullinia cupana (45 mg/Kg B.W), ginger (45 mg/Kg B.W) and […]) dissolved in vehicle; • c) Tadalafil (TAD): 2.5 mg/Kg B.W tadalafil dissolved in vehicle; • d) Composition 4+Tadalafil (COMP4+TAD): A combination of b and c at the same doses. Histochemistry and Immunohistochemistry. […] Quantitative Image Analysis was performed by computerized densitometry using ImagePro 7.1 software (Media Cybernetics, Silver Spring, Md.), coupled to an Olympus BHS microscope equipped with a Retiga digital camera. For Masson staining, 40× magnification pictures of the penis comprising half of the corpora cavernosa were analyzed for smooth muscle (stained in red) and collagen areas (stained in blue) excluding the sinusoidal spaces, and expressed as the smooth muscle/collagen ratio. For desmin and iNOS staining, 200× magnification pictures of the corpora cavernosa were analyzed in a computerized grid and expressed as a percentage of positive area versus total area of the corpora cavernosa. […]

[1] = system: rat corpora cavernosa smooth muscle/collagen; experiment: Masson trichrome staining, smooth muscle/collagen ratio by quantitative image analysis; type: in vivo; conditions: daily oral treatment 2 months; compared to 12 month-old control animals
Description: as §1

Q: What does the source list for CN1CC(=O)N2[C@H](c3ccc4c(c3)OCO4)c3[nH]c4ccccc4c3C[C@@H]2C1=O [tadalafil]?
A: increase in desmin expression (desmin): 38%; improvement of SMC/collagen ratio [1]: 60%
